# Test results published in patent US11040028B2, “Penicinotam derivative, preparation method and use thereof” (OCEAN UNIVERSITY OF CHINA, priority 2017, dated 2021).
# Legend:
# Type in all cases: cell-based
# [1] = tested on: BHK-21 cells; assay: Anti-fibrosis activity test: inhibition of BHK-21 cell proliferation (CCK-8); conditions: Mesocricetus auratus, BHK-21, 48 h
# Procedure, shortened: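 BHK-21 cells seeded at 2×10^4 cells/mL, allowed to adhere 24 h at 37° C, 5% CO2, then exposed to compounds at graded concentrations in triplicate for 48 h. CCK-8 added for 2 h and absorbance read at 450 nm; inhibition rate taken as (1−Ai/Ao)×100% and IC50 fitted.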
# [2] = tested on: cardiac fibroblast RAT-iCell-C002; assay: Anti-fibrosis activity test: inhibition of proliferation of cardiac fibroblast RAT-iCell-C002 (CCK-8); conditions: Cardiac fibroblast, 48 h
# Procedure, shortened: (§1)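 Read-out: absorbance at 450 nm after 2 h with CCK-8, following 48 h of compound exposure of adhered cells (2×10^4 cells/mL, 24 h attachment, 37° C, 5% CO2). Proliferation inhibition was taken relative to the blank control, and IC50 values were calculated from it.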
# [3] = tested on: human embryonic lung fibroblast IMR-90; assay: Anti-fibrosis activity test: inhibition of proliferation of human embryonic lung fibroblast IMR-90 (CCK-8)
# Procedure, shortened: as §1
# [4] = tested on: NF-κB; assay: Immunological activity test: inhibition of NF-κB activity; conditions: initial concentration of 30 μM; a/b isomers given as first/second symbol; read-out: IC50 (μM), inhibitory activity against NF-κB
# Description: Main references for immunological activity test of the compounds of the present application includes: Vogl, S.; Atanasov, A. G.; Binder, M.; Bulusu, M.; Zehl, M.; Fakhrudin, N.; Heiss, E. H.; Picker, P.; Wawrosch, C.; Saukel, J.; Reznicek, G.; Urban, E.; Bochkov, V.; Dirsch, V. M.; Kopp, B. J. Evid-Based Complementary Alern. Med. 2013, ID 395316. Commercially available parthenolide was utilized as a positive control.
# The ability of the compounds of the present application to inhibit NF-κB activity was tested at an initial concentration of 30 μM.
# The assay data for the compounds of the present application were further analyzed to determine their IC50 values.
# [5] = tested on: human hepatic stellate cells LX-2; assay: Anti-fibrosis activity test: inhibition of proliferation of human hepatic stellate cells LX-2 (CCK-8); conditions: Homo sapiens, 48 h
# Procedure, shortened: as §1
# [6] = tested on: human fibrosarcoma cells HT-1080; assay: Anti-fibrosis activity test: inhibition of proliferation of human fibrosarcoma cells HT-1080 (CCK-8); conditions: Homo sapiens, HT-1080, 48 h
# Procedure, shortened: as §1
# [7] = tested on: human lung fibroblasts HFL1; assay: Anti-fibrosis activity test: inhibition of proliferation of human lung fibroblasts HFL1 (CCK-8); conditions: Homo sapiens, HFL1, 48 h
# Procedure, shortened: as §1
# [8] = tested on: human dermal fibroblasts CCC-ESF-1; assay: Anti-fibrosis activity test: inhibition of proliferation of human dermal fibroblasts CCC-ESF-1 (CCK-8); conditions: Fibroblast
# Procedure, shortened: as §1
# [9] = CCK-8, 48 hours after administration
# [10] = cardiac fibroblast RAT-iCell-C002, CCK-8, 48 hours
# [11] = human embryonic lung fibroblast IMR-90, CCK-8, 48 hours
# [12] = human hepatic stellate cells LX-2, CCK-8, 48 hours
# [13] = human fibrosarcoma cells HT-1080, CCK-8, 48 hours
# [14] = human lung fibroblasts HFL1, CCK-8, 48 hours
# [15] = human dermal fibroblasts CCC-ESF-1, CCK-8, 48 hours
SMILES,IC50 [4],"IC50 [6, 13]","IC50 ([6]; HT-1080 cells, 48 h, CCK-8)","IC50 [1, 9]","IC50 [2, 10]","IC50 [3, 11]","IC50 [5, 12]","IC50 [7, 14]","IC50 [8, 15]","IC50 ([1]; 48 h, CCK-8)","IC50 ([2]; RAT-iCell-C002 cells, CCK-8)","IC50 ([3]; Homo sapiens, IMR-90 cells, 48 h, CCK-8)","IC50 ([5]; LX-2, 48 h, LX-2 cells, CCK-8)","IC50 ([7]; HFL1 cells, 48 h, CCK-8)","IC50 ([8]; Homo sapiens, CCC-ESF-1 cells, 48 h, CCK-8)"
"O=C1c2c(n(Cc3cccc(Cl)c3)c3cc(C(F)(F)F)ccc3c2=O)-c2cccn21 [Compound 545a, 4-(3-Chlorobenzyl)-6-(trifluoromethyl)-9H-pyrrolizino[1,2-b]quinoline-9,10(4H)-dione]",1 to 10 µM,5 to 20 mM,–,0.05 to 5 mM,0.05 to 5 mM,0.05 to 5 mM,0.05 to 5 mM,0.05 to 5 mM,0.05 to 5 mM,–,–,–,–,–,–
"N#Cc1ccc2c(=O)c3c(n(Cc4cccc(F)c4)c2c1)-c1cccn1C3=O [Compound 515a, 4-(3-Fluorobenzyl)-9,10-dioxo-4,10-dihydro-9H-pyrrolizino[1,2-b]quinoline-6-carbonitrile]",1 to 10 µM,5 to 20 mM,–,0.05 to 5 mM,0.05 to 5 mM,0.05 to 5 mM,0.05 to 5 mM,0.05 to 5 mM,0.05 to 5 mM,–,–,–,–,–,–
"O=C1c2c(n(-c3ccc(F)cc3)c3ccccc3c2=O)-c2cccn21 [Compound 18a, 4-(4-Fluorophenyl)-9H-pyrrolizino[1,2-b]quinoline-9,10(4H)-dione]",0.1 to 1 µM,0.05 to 5 mM,–,< 0.05 mM,0.05 to 5 mM,0.05 to 5 mM,5 to 20 mM,0.05 to 5 mM,0.05 to 5 mM,–,–,–,–,–,–
"N#Cc1ccc2c(=O)c3c(n(Cc4ccccc4F)c2c1)-c1cccn1C3=O [Compound 516a, 4-(2-Fluorobenzyl)-9,10-dioxo-4,10-dihydro-9H-pyrrolizino[1,2-b]quinoline-6-carbonitrile]",0.1 to 1 µM,0.05 to 5 mM,–,< 0.05 mM,0.05 to 5 mM,0.05 to 5 mM,0.05 to 5 mM,0.05 to 5 mM,0.05 to 5 mM,–,–,–,–,–,–
"N#Cc1ccc2c(=O)c3c(n(Cc4ccc(F)cc4)c2c1)-c1cccn1C3=O [Compound 514a, 4-(4-Fluorobenzyl)-9,10-dioxo-4,10-dihydro-9H-pyrrolizino[1,2-b]quinoline-6-carbonitrile]",1 to 10 µM,0.05 to 5 mM,–,< 0.05 mM,0.05 to 5 mM,0.05 to 5 mM,0.05 to 5 mM,0.05 to 5 mM,0.05 to 5 mM,–,–,–,–,–,–
"O=C1c2c(nc3ccccc3c2Oc2ccc(F)cc2)-c2cccn21 [Compound 18b, 9-(4-fluorophenoxy)-10H-pyrrolizino[1,2-b]quinolin-10-one]",1 to 10 µM,0.05 to 5 mM,–,0.05 to 5 mM,0.05 to 5 mM,0.05 to 5 mM,0.05 to 5 mM,0.05 to 5 mM,0.05 to 5 mM,–,–,–,–,–,–
"O=C1c2c(n(Cc3ccc(Cl)cc3)c3cc(C(F)(F)F)ccc3c2=O)-c2cccn21 [Compound 544a, 4-(4-Chlorobenzyl)-6-(trifluoromethyl)-9H-pyrrolizino[1,2-b]quinoline-9,10(4H)-dione]",10 to 50 µM,0.05 to 5 mM,–,< 0.05 mM,0.05 to 5 mM,0.05 to 5 mM,0.05 to 5 mM,0.05 to 5 mM,0.05 to 5 mM,–,–,–,–,–,–
"N#Cc1ccc2c(OCc3cccc(F)c3)c3c(nc2c1)-c1cccn1C3=O [Compound 515b, 9-((3-fluorobenzyl)oxy)-10-oxo-10H-pyrrolizino[1,2-b]quinoline-6-carbonitrile]",1 to 10 µM,5 to 20 mM,–,0.05 to 5 mM,< 0.05 mM,5 to 20 mM,0.05 to 5 mM,0.05 to 5 mM,0.05 to 5 mM,–,–,–,–,–,–
"O=C1c2c(n(Cc3ccccc3Cl)c3cc(C(F)(F)F)ccc3c2=O)-c2cccn21 [Compound 546a, 4-(2-Chlorobenzyl)-6-(trifluoromethyl)-9H-pyrrolizino[1,2-b]quinoline-9,10(4H)-dione]",1 to 10 µM,0.05 to 5 mM,–,< 0.05 mM,0.05 to 5 mM,0.05 to 5 mM,0.05 to 5 mM,0.05 to 5 mM,0.05 to 5 mM,–,–,–,–,–,–
"CC(C)n1c2c(c(=O)c3ccccc31)C(=O)n1cccc1-2 [Compound 5a, 4-Isopropyl-9H-pyrrolizino[1,2-b]quinoline-9,10(4H)-dione]",10 to 50 µM,5 to 20 mM,–,5 to 20 mM,< 0.05 mM,0.05 to 5 mM,0.05 to 5 mM,0.05 to 5 mM,0.05 to 5 mM,–,–,–,–,–,–

# The next lines start with results.
IC50 [4],"IC50 [6, 13]","IC50 ([6]; HT-1080 cells, 48 h, CCK-8)",SMILES,"IC50 [1, 9]","IC50 [2, 10]","IC50 [3, 11]","IC50 [5, 12]","IC50 [7, 14]","IC50 [8, 15]","IC50 ([1]; 48 h, CCK-8)","IC50 ([2]; RAT-iCell-C002 cells, CCK-8)","IC50 ([3]; Homo sapiens, IMR-90 cells, 48 h, CCK-8)","IC50 ([5]; LX-2, 48 h, LX-2 cells, CCK-8)","IC50 ([7]; HFL1 cells, 48 h, CCK-8)","IC50 ([8]; Homo sapiens, CCC-ESF-1 cells, 48 h, CCK-8)"
1 to 10 µM,0.05 to 5 mM,–,"N#Cc1ccc2c(c1)c(=O)c1c(n2Cc2ccc(-c3ccccc3)cc2)-c2cccn2C1=O [Compound 628a, 4-([1,1′-Biphenyl]-4-ylmethyl)-9,10-dioxo-4,10-dihydro-9H-pyrrolizino[1,2-b]quinoline-7-carbonitrile]",0.05 to 5 mM,0.05 to 5 mM,0.05 to 5 mM,0.05 to 5 mM,5 to 20 mM,0.05 to 5 mM,–,–,–,–,–,–
1 to 10 µM,0.05 to 5 mM,–,"N#Cc1ccc2nc3c(c(OCc4ccc(-c5ccccc5)cc4)c2c1)C(=O)n1cccc1-3 [Compound 628b, 9-([1,1′-biphenyl]-4-ylmethoxy)-10-oxo-10H-pyrrolizino[1,2-b]quinoline-7-carbonitrile]",0.05 to 5 mM,0.05 to 5 mM,0.05 to 5 mM,0.05 to 5 mM,0.05 to 5 mM,0.05 to 5 mM,–,–,–,–,–,–
0.001 to 0.1 µM,–,0.05 to 5 mM,"Cc1ccc2c(O)c3c(nc2c1)-c1cccn1C3=O [Compound 714b, 9-hydroxy-6-methyl-10H-pyrrolizino[1,2-b]quinolin-10-one]",–,–,–,–,–,–,0.05 to 5 mM,0.05 to 5 mM,0.05 to 5 mM,0.05 to 5 mM,0.05 to 5 mM,0.05 to 5 mM
1 to 10 µM,0.05 to 5 mM,–,"N#Cc1ccc2nc3c(c(OCc4ccc(C(F)(F)F)cc4)c2c1)C(=O)n1cccc1-3 [Compound 627b, 10-oxo-9-((4-(trifluoromethyl)benzyl)oxy)-10H-pyrrolizino[1,2-b]quinoline-7-carbonitrile]",0.05 to 5 mM,0.05 to 5 mM,0.05 to 5 mM,0.05 to 5 mM,0.05 to 5 mM,0.05 to 5 mM,–,–,–,–,–,–
1 to 10 µM,0.05 to 5 mM,–,"O=C1c2c(n(Cc3ccc(F)cc3F)c3cc(N4CCNCC4)ccc3c2=O)-c2cccn21 [Compound 622a, 4-(2,4-Difluorobenzyl)-6-(piperazin-1-yl)-9H-pyrrolizino[1,2-b]quinoline-9,10(4H)-dione]",0.05 to 5 mM,0.05 to 5 mM,0.05 to 5 mM,–,0.05 to 5 mM,0.05 to 5 mM,–,–,–,–,–,–
0.1 to 1 µM,0.05 to 5 mM,–,"O=C1c2c(n(Cc3ccc(F)cc3)c3ccc(F)cc3c2=O)-c2cccn21 [Compound 617a, 7-Fluoro-4-(4-fluorobenzyl)-9H-pyrrolizino[1,2-b]quinoline-9,10(4H)-dione]",< 0.05 mM,0.05 to 5 mM,0.05 to 5 mM,0.05 to 5 mM,0.05 to 5 mM,0.05 to 5 mM,–,–,–,–,–,–
1 to 10 µM,0.05 to 5 mM,–,"N#Cc1ccc2c(c1)c(=O)c1c(n2Cc2ccc(-c3ccccc3C#N)cc2)-c2cccn2C1=O [Compound 629a, 4-((2′-Cyano-[1,1′-biphenyl]-4-yl)methyl)-9,10-dioxo-4,10-dihydro-9H-pyrrolizino[1,2-b]quinoline-7-carbonitrile]",< 0.05 mM,0.05 to 5 mM,0.05 to 5 mM,0.05 to 5 mM,0.05 to 5 mM,< 0.05 mM,–,–,–,–,–,–
1 to 10 µM,0.05 to 5 mM,–,"O=C1c2c(nc3cc(N4CCNCC4)ccc3c2OCc2ccc(F)cc2F)-c2cccn21 [Compound 622b, 9-((2,4-difluorobenzyl)oxy)-6-(piperazin-1-yl)-10H-pyrrolizino[1,2-b]quinolin-10-one]",0.05 to 5 mM,0.05 to 5 mM,0.05 to 5 mM,–,–,0.05 to 5 mM,–,–,–,–,–,–
0.1 to 1 µM,–,–,"O=C1c2c(nc3cc(N4CCNCC4)ccc3c2OCc2cc(C(F)(F)F)cc(C(F)(F)F)c2)-c2cccn21 [Compound 631b, 9-((3,5-bis(trifluoromethyl)benzyl)oxy)-6-(piperazin-1-yl)-10H-pyrrolizino[,2-b]quinolin-10-one]",–,–,–,–,–,–,–,–,–,–,–,–
